{"source": "patent US9682925B2", "about": "“Cyclopropaneamine compound” (TAKEDA PHARMACEUTICAL COMPANY LIMITED, priority 2011, dated 2017)", "key": {"MAO-A": {"biological_target": "T1, MAO-A (Homo sapiens, UniProt P21397)", "T1 construct": "purchased Sigma-Aldrich Co. LLC", "T1 sequence (P21397 1-527)": "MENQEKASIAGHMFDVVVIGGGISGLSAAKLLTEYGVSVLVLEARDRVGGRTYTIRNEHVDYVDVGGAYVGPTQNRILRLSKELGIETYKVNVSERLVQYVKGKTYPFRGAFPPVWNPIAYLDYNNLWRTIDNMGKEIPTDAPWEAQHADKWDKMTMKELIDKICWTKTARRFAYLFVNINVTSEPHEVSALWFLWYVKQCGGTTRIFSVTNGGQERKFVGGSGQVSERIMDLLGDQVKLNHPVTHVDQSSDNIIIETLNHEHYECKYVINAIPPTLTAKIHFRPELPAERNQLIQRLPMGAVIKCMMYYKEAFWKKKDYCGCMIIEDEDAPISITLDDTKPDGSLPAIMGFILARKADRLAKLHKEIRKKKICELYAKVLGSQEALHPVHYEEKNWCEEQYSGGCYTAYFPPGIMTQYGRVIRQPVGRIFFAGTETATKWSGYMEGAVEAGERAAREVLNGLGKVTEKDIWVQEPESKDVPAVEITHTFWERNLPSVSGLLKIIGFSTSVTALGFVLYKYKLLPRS", "assay": "Measurement of MAO-A inhibitory activity (MAO-Glo Assay)", "type": "biochemical", "procedure,_shortened": "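Luminescent MAO-Glo read-out: % inhibition computed from counts relative to enzyme-only control and enzyme-free blank. Compound and 400 ng MAO-A in HEPES pH 7.5 with 5% glycerol stood 10 min at room temperature before MAO substrate (160 μM stock) started a 60 min reaction.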"}, "MAO-B": {"biological_target": "T2, MAO-B (Homo sapiens, UniProt P27338)", "T2 construct": "purchased Sigma-Aldrich Co. LLC", "T2 sequence (P27338 1-520)": "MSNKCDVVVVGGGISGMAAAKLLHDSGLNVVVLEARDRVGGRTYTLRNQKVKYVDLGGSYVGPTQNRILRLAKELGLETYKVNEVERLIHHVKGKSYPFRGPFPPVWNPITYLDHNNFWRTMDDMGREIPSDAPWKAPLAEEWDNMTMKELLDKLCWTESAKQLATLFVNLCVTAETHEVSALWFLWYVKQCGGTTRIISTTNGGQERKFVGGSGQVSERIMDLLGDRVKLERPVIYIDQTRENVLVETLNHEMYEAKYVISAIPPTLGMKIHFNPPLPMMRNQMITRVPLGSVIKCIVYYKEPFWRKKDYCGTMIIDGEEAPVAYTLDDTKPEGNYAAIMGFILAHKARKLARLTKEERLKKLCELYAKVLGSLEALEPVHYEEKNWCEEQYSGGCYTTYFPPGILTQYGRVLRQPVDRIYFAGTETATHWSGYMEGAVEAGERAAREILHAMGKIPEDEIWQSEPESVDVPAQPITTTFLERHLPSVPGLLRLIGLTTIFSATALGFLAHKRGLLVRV", "assay": "Measurement of MAO-B inhibitory activity (MAO-Glo Assay)", "type": "biochemical", "procedure,_shortened": "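Percent inhibition was calculated from luciferin-based luminescence, corrected with a blank lacking enzyme and a control lacking compound. The reaction ran 60 min at room temperature after adding MAO substrate (16 µM as added). This followed a 10 min compound–enzyme preincubation in HEPES pH 7.5 buffer.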"}, "[1]": {"test_system": "HEL92.1.7 acute myeloid leukemia cells", "assay": "Tumor growth suppressive effect test using HEL92.1.7 acute myeloid leukemia cell", "type": "in vivo, SCID mice", "settings": "change rate in tumor volume, vehicle-treated group = 100%, 30 mg/kg orally once per day", "protocol": "Tumor Growth Suppressive Effect Test Using HEL92.1.7 Acute Myeloid Leukemia Cell\n6-Week-old SCID mice were subcutaneously transplanted with 5×10^6 cells/100 μl of HEL92.1.7 acute myeloid leukemia cells, and the mice were grouped according to the body weight and tumor volume after 15 to 17 days. Vehicle (0.5% methylcellulose) or compound A, compound B or compound C was administered orally to mice (5 mice per group). The administration was once per day and performed continuously during the dosing period. Setting the change in tumor volume of the vehicle-treated group as 100%, the change rate in tumor volume of the compound-treated group (T/C %) was calculated. The tumor volume was determined by measuring the long diameter m and short diameter of the tumor with a vernier caliper, and calculating by the following calculation formula: (long diameter)×(short diameter)×(short diameter)/2."}, "human LSD1(171-852)": {"biological_target": "T3, human LSD1(171-852) (Homo sapiens, UniProt O60341)", "T3 construct": "to give hLSD1(171-852) purified product; made in house; host or cells: Escherichia coli C43(DE3) pLysS", "assay": "Measurement of LSD1 inhibitory activity (time-resolved fluorescence, biotin-histone H3 mono methylated K4 peptide)", "type": "biochemical", "settings": "read-out: LSD1 IC50 value"}}, "note": "Counter-ions that a name gives are not always drawn.", "data": [{"smiles": "O=C(Nc1ccc([C@@H]2C[C@H]2NCC2CC2)cc1)c1ccc(-c2ccccc2)cc1", "note": "(single isomer, unassigned) [Example 59, N-(4-{trans-2-[(cyclopropylmethyl)amino]cyclopropyl}phenyl)biphenyl-4-carboxamide hydrochloride]", "values": [{"measurement": "IC50", "setting": "MAO-A", "result": 7.1, "unit": "µM"}, {"measurement": "IC50", "setting": "MAO-B", "result": "> 10", "unit": "µM"}, {"measurement": "T/C (%)", "setting": "[1]; dosing period 14 days", "result": 12.54, "unit": "%"}]}, {"smiles": "O=C(Nc1ccc([C@@H]2C[C@H]2NCC2CC2)cc1)c1cn[nH]c1", "note": "(relative stereo) [Example 79, N-(4-{trans-2-[(cyclopropylmethyl)amino]cyclopropyl}phenyl)-1H-pyrazole-4-carboxamide hydrochloride]", "values": [{"measurement": "IC50", "setting": "human LSD1(171-852)", "result": "< 0.1", "unit": "µM"}, {"measurement": "IC50", "setting": "MAO-A", "result": "> 10", "unit": "µM"}, {"measurement": "IC50", "setting": "MAO-B", "result": "> 10", "unit": "µM"}, {"measurement": "T/C (%)", "setting": "[1]; dosing period 14 days", "result": 46.42, "unit": "%"}]}, {"smiles": "CN1CCC(N[C@@H]2C[C@H]2c2ccc(NC(=O)c3cccc(C(F)(F)F)c3)cc2)CC1", "note": "(relative stereo) [Example 76, N-(4-{trans-2-[(1-methylpiperidin-4-yl)amino]cyclopropyl}phenyl)-3-(trifluoromethyl)benzamide dihydrochloride]", "values": [{"measurement": "IC50", "setting": "human LSD1(171-852)", "result": "< 0.1", "unit": "µM"}, {"measurement": "IC50", "setting": "MAO-A", "result": "> 10", "unit": "µM"}, {"measurement": "IC50", "setting": "MAO-B", "result": "> 10", "unit": "µM"}, {"measurement": "T/C (%)", "setting": "[1]; dosing period 7 days", "result": "−8.08", "unit": "%"}]}]}
